{"source": "patent US20100105655A1", "about": "“NOVEL COMPOUNDS 515” (ASTRAZENECA AB, priority 2008, published 2010)"}
{"target": "T1, IGFR kinase (Homo sapiens, UniProt P08069)", "T1 construct": "purchased Millipore", "T1 sequence (P08069 31-1367)": "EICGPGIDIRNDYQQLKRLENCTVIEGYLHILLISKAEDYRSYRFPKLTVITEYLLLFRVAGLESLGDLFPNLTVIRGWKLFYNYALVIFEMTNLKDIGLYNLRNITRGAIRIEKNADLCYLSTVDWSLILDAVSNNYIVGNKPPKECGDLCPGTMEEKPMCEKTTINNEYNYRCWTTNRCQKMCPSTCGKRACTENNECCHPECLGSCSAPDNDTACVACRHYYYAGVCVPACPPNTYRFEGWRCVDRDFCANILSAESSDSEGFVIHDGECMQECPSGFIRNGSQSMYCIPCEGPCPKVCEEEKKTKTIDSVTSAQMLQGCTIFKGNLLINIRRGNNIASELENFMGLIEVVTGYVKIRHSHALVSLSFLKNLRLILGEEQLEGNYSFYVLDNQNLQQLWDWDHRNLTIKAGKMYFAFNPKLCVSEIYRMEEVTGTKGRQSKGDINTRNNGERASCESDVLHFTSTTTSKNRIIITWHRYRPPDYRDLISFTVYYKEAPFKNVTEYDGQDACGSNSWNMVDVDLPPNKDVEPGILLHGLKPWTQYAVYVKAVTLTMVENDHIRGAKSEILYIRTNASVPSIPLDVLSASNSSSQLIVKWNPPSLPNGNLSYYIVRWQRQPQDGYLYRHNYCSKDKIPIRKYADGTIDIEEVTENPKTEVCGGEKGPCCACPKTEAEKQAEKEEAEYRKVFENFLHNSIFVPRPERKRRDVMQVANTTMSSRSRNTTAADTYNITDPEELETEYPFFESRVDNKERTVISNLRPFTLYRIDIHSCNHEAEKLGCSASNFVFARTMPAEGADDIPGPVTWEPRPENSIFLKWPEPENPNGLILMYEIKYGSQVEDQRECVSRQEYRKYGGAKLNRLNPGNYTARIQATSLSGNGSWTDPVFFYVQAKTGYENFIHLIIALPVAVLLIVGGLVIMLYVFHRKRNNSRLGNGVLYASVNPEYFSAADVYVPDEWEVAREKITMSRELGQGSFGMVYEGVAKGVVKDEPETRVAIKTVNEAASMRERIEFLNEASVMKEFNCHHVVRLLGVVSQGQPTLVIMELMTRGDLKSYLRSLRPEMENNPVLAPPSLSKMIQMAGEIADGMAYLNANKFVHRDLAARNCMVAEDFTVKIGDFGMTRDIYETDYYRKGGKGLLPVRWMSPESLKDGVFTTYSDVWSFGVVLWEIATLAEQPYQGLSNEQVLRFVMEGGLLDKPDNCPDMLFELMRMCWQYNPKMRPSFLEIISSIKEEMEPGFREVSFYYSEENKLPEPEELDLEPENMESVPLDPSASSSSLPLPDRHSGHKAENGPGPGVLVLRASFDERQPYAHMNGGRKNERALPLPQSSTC", "experiment": "Enzyme assay (c), IGFR kinase, Caliper LabChip", "assay_type": "biochemical", "conditions": "not given", "description": "(§1) For Echo dosing the solvent was 100% DMSO. A master plate was prepared with 40 ul of 10 mM stock solution of the test compound in DMSO in quadrant 1 of a Labcyte 384 well plate. A 1 in 100 dilution was made from quadrant 1 into quadrant 2 by removing 0.4 ul and adding it to 39.6 ul of DMSO. Subsequent 1 in 100 dilutions were made into quadrant 3 from quadrant 2 and quadrant 4 from quadrant 3.\n(§2) Multiple 2.5 nl droplets were dispensed from each quadrant of the master plate to generate the dose range that was required in the test. The dose range most commonly used was as follows: 100 uM, 30 uM, 10 uM, 3 uM, 1 uM, 0.3 uM, 0.1 uM, 0.03 uM, 0.01 uM, 0.003 uM, 0.001 uM, 0.0001 uM. Each well was backfilled with dimethyl sulfoxide (DMSO) to a total volume of 120 nl, such that when the enzyme and substrate mix was added the final DMSO concentration was 1%.\n(§3) DMSO was added to max control wells as 120 nl, minimum control wells were treated with 120 nl of compound at a concentration that inhibited the enzyme activity 100%.\n(§4) Integration of the substrate and product peaks was carried out using Caliper LabChip software and IC50 curves were calculated using Origin™ software.", "units": {"IC50": "µM"}}
{"smiles": "COc1cc(N2CC3CN(CCCO)CC(C2)O3)ccc1Nc1ncc(Cl)c(-c2cnc3c(F)cccn23)n1", "note": "[Example 204, 3-[7-[4-[[5-chloro-4-(8-fluoroimidazo[1,2-a]pyridin-3-yl)pyrimidin-2-yl]amino]-3-methoxy-phenyl]-9-oxa-3,7-diazabicyclo[3.3.1]nonan-3-yl]propan-1-ol]", "IC50": 0.019}
{"target": "T1, IGFR kinase", "experiment": "Enzyme assay (c), IGFR kinase, Caliper LabChip", "assay_type": "biochemical", "conditions": "30 nM IGFR kinase, 6 uM ATP, 3 uM peptide mix; read-out: IGFR IC50", "description": "as §1, §2, §3, §4", "units": {"IC50": "µM"}}
{"smiles": "COc1cc(OC2CN(C(=O)N(C)CCO)C2)ccc1Nc1ncc(Cl)c(-c2cnc3ccccn23)n1", "note": "[Example 68, 3-[4-[(5-chloro-4-imidazo[1,2-a]pyridin-3-yl-pyrimidin-2-yl)amino]-3-methoxy-phenoxy]-N-(2-hydroxyethyl)-N-methyl-azetidine-1-carboxamide]", "IC50": 0.024}
{"smiles": "CNCc1ccn2c(-c3nc(Nc4ccc(N5CCN(C(C)=O)CC5)cc4OC)ncc3Cl)cnc2c1", "note": "[Example 186, 1-[4-[4-[[5-chloro-4-[7-(methylaminomethyl)imidazo[1,2-a]pyridin-3-yl]pyrimidin-2-yl]amino]-3-methoxy-phenyl]piperazin-1-yl]ethanone]", "IC50": 0.036}
{"smiles": "COc1cc(OC2CCN(C(C)=O)CC2)ccc1Nc1ncc(C(F)(F)F)c(-c2cnc3ccccn23)n1", "note": "[Example 110, 1-[4-[4-[[4-imidazo[1,2-a]pyridin-3-yl-5-(trifluoromethyl)pyrimidin-2-yl]amino]-3-methoxy-phenoxy]-1-piperidyl]ethanone]", "IC50": 0.036}
{"smiles": "COc1cc(N2CCN(S(=O)(=O)N(C)C)CC2)ccc1Nc1ncc(Cl)c(-c2cnc3ccccn23)n1", "note": "[Example 3.7, 4-[4-[(5-chloro-4-imidazo[1,2-a]pyridin-3-yl-pyrimidin-2-yl)amino]-3-methoxy-phenyl]-N,N-dimethyl-piperazine-1-sulfonamide]", "IC50": 0.011}
{"smiles": "COc1cc(C(C)C(=O)N2CCNCC2)ccc1Nc1ncc(Cl)c(-c2cnc3ccccn23)n1", "note": "(stereo not drawn) [Example 3.42, 2-[4-[(5-chloro-4-imidazo[1,2-a]pyridin-3-yl-pyrimidin-2-yl)amino]-3-methoxy-phenyl]-1-piperazin-1-yl-propan-1-one]", "IC50": 0.025}
{"smiles": "COc1cc(N2CCNC(=O)C2)ccc1Nc1ncc(F)c(-c2cnc3ccccn23)n1", "note": "[Example 88, 4-[4-[(5-fluoro-4-imidazo[1,2-a]pyridin-3-yl-pyrimidin-2-yl)amino]-3-methoxy-phenyl]piperazin-2-one]", "IC50": 0.023}
{"smiles": "COc1cc(N2CC3CN(CCO)CC(C2)O3)ccc1Nc1ncc(F)c(-c2cnn3ccccc23)n1", "note": "[Example 175, 2-[7-[4-[(5-fluoro-4-pyrazolo[1,5-a]pyridin-3-yl-pyrimidin-2-yl)amino]-3-methoxy-phenyl]-9-oxa-3,7-diazabicyclo[3.3.1]nonan-3-yl]ethanol]", "IC50": 0.014}
{"smiles": "COc1cc(N2CCOCC2)ccc1Nc1ncc(C)c(-c2cnc3ccccn23)n1", "note": "[Example 100, 4-imidazo[1,2-a]pyridin-3-yl-N-(2-methoxy-4-morpholino-phenyl)-5-methyl-pyrimidin-2-amine]", "IC50": 0.057}
{"smiles": "COc1cc(OC2CCN(C)C2)ccc1Nc1ncc(Br)c(-c2cnc3ccccn23)n1", "note": "(stereo not drawn) [Example 123, 5-bromo-4-imidazo[1,2-a]pyridin-3-yl-N-[2-methoxy-4-(1-methylpyrrolidin-3-yl)oxy-phenyl]pyrimidin-2-amine]", "IC50": 0.005}
{"smiles": "COc1ccc(N2CC3CNCC(C2)O3)cc1Nc1ncc(Cl)c(-c2cnn3ccccc23)n1", "note": "[Example 189, 5-chloro-N-[2-methoxy-5-(9-oxa-3,7-diazabicyclo[3.3.1]nonan-7-yl)phenyl]-4-yrazolo[1,5-a]pyridin-3-yl-pyrimidin-2-amine]", "IC50": 0.095}
{"smiles": "COc1cc(CC(=O)N2CCN(CCO)CC2)ccc1Nc1ncc(Cl)c(-c2cnc3ccccn23)n1", "note": "[Example 37, 2-[4-[(5-chloro-4-imidazo[1,2-a]pyridin-3-yl-pyrimidin-2-yl)amino]-3-methoxy-phenyl]-1-[4-(2-hydroxyethyl)piperazin-1-yl]ethanone]", "IC50": 0.031}
{"smiles": "COc1cc(C2CCNCC2)ccc1Nc1ncc(C)c(-c2cnn3ccccc23)n1", "note": "[Example 162, N-[2-methoxy-4-(4-piperidyl)phenyl]-5-methyl-4-pyrazolo[1,5-a]pyridin-3-yl-pyrimidin-2-amine]", "IC50": 0.002}
{"smiles": "COc1cc(C2CCN(C(=O)CO)CC2)ccc1Nc1ncc(Cl)c(-c2cnn3ccccc23)n1", "note": "[Example 137, 1-[4-[4-[(5-chloro-4-pyrazolo[1,5-a]pyridin-3-yl-pyrimidin-2-yl)amino]-3-methoxy-phenyl]-1-piperidyl]-2-hydroxy-ethanone]", "IC50": 0.003}
{"smiles": "COc1cc(O[C@H]2CCNC2)ccc1Nc1ncc(Cl)c(-c2cnc3ccccn23)n1", "note": "[Example 6.6, 5-chloro-4-imidazo[1,2-a]pyridin-3-yl-N-[2-methoxy-4-[(3S)-pyrrolidin-3-yl]oxy-phenyl]pyrimidin-2-amine]", "IC50": 0.014}
{"smiles": "COc1cc(N2CCN(C(=O)[C@@H](C)OC)CC2)ccc1Nc1ncc(Cl)c(-c2cnc3ccccn23)n1", "note": "[Example 25.5, (2R)-1-[4-[4-[(5-chloro-4-imidazo[1,2-a]pyridin-3-yl-pyrimidin-2-yl)amino]-3-methoxy-phenyl]piperazin-1-yl]-2-methoxy-propan-1-one]", "IC50": 0.009}
{"smiles": "COc1cc(CC(CO)CO)ccc1Nc1ncc(Cl)c(-c2cnn3ccccc23)n1", "note": "[Example 190, 2-[[4-[(5-chloro-4-pyrazolo[1,5-a]pyridin-3-yl-pyrimidin-2-yl)amino]-3-methoxy-phenyl]methyl]propane-1,3-diol]", "IC50": 0.002}
{"smiles": "COc1ccc(N2CC[C@H](N(C)C)C2)cc1Nc1ncc(Cl)c(-c2cnc3ccccn23)n1", "note": "[Example 3.17, 5-chloro-N-[5-[(3S)-3-dimethylaminopyrrolidin-1-yl]-2-methoxy-phenyl]-4-imidazo[1,2-a]pyridin-3-yl-pyrimidin-2-amine]", "IC50": 0.125}
{"smiles": "COc1cc(N2CCN(C(=O)[C@@H]3CCC(=O)N3)CC2)ccc1Nc1ncc(Cl)c(-c2cnc3ccccn23)n1", "note": "[Example 25.1A, (5S)-5-[4-[4-[(5-chloro-4-imidazo[1,2-a]pyridin-3-yl-pyrimidin-2-yl)amino]-3-methoxy-phenyl]piperazine-1-carbonyl]pyrrolidin-2-one]", "IC50": 0.008}
{"smiles": "COc1cc(N2CCN(C(C)=O)CC2)ccc1Nc1ncc(OC)c(-c2cnc3ccccn23)n1", "note": "[Example 92, 1-[4-[4-[(4-imidazo[1,2-a]pyridin-3-yl-5-methoxy-pyrimidin-2-yl)amino]-3-methoxy-phenyl]piperazin-1-yl]ethanone]", "IC50": 0.09}
{"smiles": "COc1cc(N2CCN(C[C@@H](C)O)CC2)ccc1Nc1ncc(C)c(-c2cnc3ccccn23)n1", "note": "[Example 105, (2R)-1-[4-[4-[(4-imidazo[1,2-a]pyridin-3-yl-5-methyl-pyrimidin-2-yl)amino]-3-methoxy-phenyl]piperazin-1-yl]propan-2-ol]", "IC50": 0.026}
{"smiles": "COc1cc(N2CCCC2)ccc1Nc1ncc(Cl)c(-c2cnc3ccccn23)n1", "note": "[Example 3.44, 5-chloro-4-imidazo[1,2-a]pyridin-3-yl-N-(2-methoxy-4-pyrrolidin-1-yl-phenyl)pyrimidin-2-amine]", "IC50": 0.0003}
{"smiles": "COc1ccc(N2CCNCC2)cc1Nc1ncc(C)c(-c2cnc3c(F)cccn23)n1", "note": "[Example 199, 4-(8-fluoroimidazo[1,2-a]pyridin-3-yl)-N-(2-methoxy-5-piperazin-1-yl-phenyl)-5-methyl-pyrimidin-2-amine]", "IC50": 0.11}
{"smiles": "COc1cc(N2CCNCC2)ccc1Nc1ncc(F)c(-c2cnc3ccccn23)n1", "note": "[Example 73, 5-fluoro-4-imidazo[1,2-a]pyridin-3-yl-N-(2-methoxy-4-piperazin-1-yl-phenyl)pyrimidin-2-amine]", "IC50": 0.071}
{"smiles": "Cc1ccc(N2CC[C@H](N(C)C)C2)cc1Nc1ncc(Cl)c(-c2cnc3ccccn23)n1", "note": "[Example 3.14, 5-chloro-N-[5-[(3S)-3-dimethylaminopyrrolidin-1-yl]-2-methyl-phenyl]-4-imidazo[1,2-a]pyridin-3-yl-pyrimidin-2-amine]", "IC50": 0.03}
{"smiles": "CCOc1cc(N2CCN(C)CC2)ccc1Nc1ncc(Br)c(-c2cnc3ccccn23)n1", "note": "[Example 122, 5-bromo-N-[2-ethoxy-4-(4-methylpiperazin-1-yl)phenyl]-4-imidazo[1,2-a]pyridin-3-yl-pyrimidin-2-amine]", "IC50": 0.008}
{"smiles": "COc1cc(C(CO)CO)ccc1Nc1ncc(Cl)c(-c2cnc3c(F)cccn23)n1", "note": "[Example 181, 2-[4-[[5-chloro-4-(8-fluoroimidazo[1,2-a]pyridin-3-yl)pyrimidin-2-yl]amino]-3-methoxy-phenyl]propane-1,3-diol]", "IC50": 0.021}
{"smiles": "COc1ccc(N2CCNCC2)cc1Nc1ncc(F)c(-c2cnn3ccccc23)n1", "note": "[Example 174, 5-fluoro-N-(2-methoxy-5-piperazin-1-yl-phenyl)-4-pyrazolo[1,5-a]pyridin-3-yl-pyrimidin-2-amine]", "IC50": 0.063}
{"smiles": "COc1cc(C2CCN(C(=O)N(C)C)CC2)ccc1Nc1ncc(Cl)c(-c2cnc3ccccn23)n1", "note": "[Example 57, 4-[4-[(5-chloro-4-imidazo[1,2-a]pyridin-3-yl-pyrimidin-2-yl)amino]-3-methoxy-phenyl]-N,N-dimethyl-piperidine-1-carboxamide]", "IC50": 0.006}
{"smiles": "COc1cc(N2CCN(CCO)[C@H](C)C2)ccc1Nc1ncc(C)c(-c2cnc3ccccn23)n1", "note": "[Example 270, 2-[(2R)-4-[4-[(4-imidazo[1,2-a]pyridin-3-yl-5-methyl-pyrimidin-2-yl)amino]-3-methoxy-phenyl]-2-methyl-piperazin-1-yl]ethanol]", "IC50": 0.043}
